We go through 16 compounds from patent publication US9999650B2, “Peptide and peptidomimetic inhibitors” (Ra Pharmaceuticals, Inc., priority 2012, dated 2018).

pIC50: −log10 of the molar value. Numbered stars: 1 amine (or outer) side, 2 acyl side, 3 side chain; on linkers, the order of the positions; unused ones are H or OH. Bridge positions count the residues as written; N and C are the ends. Square brackets hold non-standard residues; d marks the D form. Peptide text beside a SMILES is read from it. * marks the point of attachment. NMeW = CN[C@@H](Cc1c[nH]c2ccccc12)C(=O)O; Phe(4-Cl) = N[C@@H](Cc1ccc(Cl)cc1)C(=O)O; X1 = O=C(C(N[*:1])C1CCc2ccccc2C1)[*:2]; X6 = Nc1ccc(CCC(N[*:1])C(=O)[*:2])cn1; mXylylene = c1cc(C[*:1])cc(C[*:2])c1; X8 = CC(C)(C)[C@H](N*)c1ccccn1; Chg = N[C@H](C(=O)O)C1CCCCC1; Phg = N[C@H](C(=O)O)c1ccccc1; Tle = CC(C)(C)[C@H](N)C(=O)O; Aib = CC(C)(N)C(=O)O; Mpa = O=C(O)CCS

What is called pIC50 is the IC50 on a negative log10 scale, so that one unit is a factor of ten.

T2 sequence (P03951 19-387 limits assumed): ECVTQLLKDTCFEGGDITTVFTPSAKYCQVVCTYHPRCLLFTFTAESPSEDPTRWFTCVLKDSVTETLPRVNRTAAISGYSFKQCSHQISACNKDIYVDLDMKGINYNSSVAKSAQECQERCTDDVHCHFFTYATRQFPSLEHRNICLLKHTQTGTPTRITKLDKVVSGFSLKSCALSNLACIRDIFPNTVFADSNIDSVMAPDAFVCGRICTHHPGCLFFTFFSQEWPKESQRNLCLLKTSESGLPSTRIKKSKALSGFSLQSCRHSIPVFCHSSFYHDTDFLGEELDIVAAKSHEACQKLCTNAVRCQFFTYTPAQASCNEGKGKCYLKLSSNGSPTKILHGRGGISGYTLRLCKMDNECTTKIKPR
T2 sequence (P03951 388-625 limits assumed): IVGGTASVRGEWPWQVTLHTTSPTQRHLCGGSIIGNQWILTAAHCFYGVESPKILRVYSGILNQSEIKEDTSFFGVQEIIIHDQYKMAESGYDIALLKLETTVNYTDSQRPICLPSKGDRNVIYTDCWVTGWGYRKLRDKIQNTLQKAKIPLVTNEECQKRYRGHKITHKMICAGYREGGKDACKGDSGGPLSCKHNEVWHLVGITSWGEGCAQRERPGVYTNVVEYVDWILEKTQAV

The first test deals with T1, human plasma kallikrein (Homo sapiens, UniProt P03952).
T1 construct: purchased Enzyme Research Laboratories HPKa 1303
T1 sequence (P03952 20-390 limits assumed): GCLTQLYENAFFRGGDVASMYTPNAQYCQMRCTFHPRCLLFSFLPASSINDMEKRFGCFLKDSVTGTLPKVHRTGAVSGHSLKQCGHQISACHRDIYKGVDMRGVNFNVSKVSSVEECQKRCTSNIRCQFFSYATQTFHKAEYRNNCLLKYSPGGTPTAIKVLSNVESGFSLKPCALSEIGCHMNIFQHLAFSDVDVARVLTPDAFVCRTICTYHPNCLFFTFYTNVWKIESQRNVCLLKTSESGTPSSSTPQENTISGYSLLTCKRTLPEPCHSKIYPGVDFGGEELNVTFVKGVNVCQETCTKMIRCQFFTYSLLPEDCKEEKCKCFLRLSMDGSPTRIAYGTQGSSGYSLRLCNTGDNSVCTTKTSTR
T1 sequence (P03952 391-638 limits assumed): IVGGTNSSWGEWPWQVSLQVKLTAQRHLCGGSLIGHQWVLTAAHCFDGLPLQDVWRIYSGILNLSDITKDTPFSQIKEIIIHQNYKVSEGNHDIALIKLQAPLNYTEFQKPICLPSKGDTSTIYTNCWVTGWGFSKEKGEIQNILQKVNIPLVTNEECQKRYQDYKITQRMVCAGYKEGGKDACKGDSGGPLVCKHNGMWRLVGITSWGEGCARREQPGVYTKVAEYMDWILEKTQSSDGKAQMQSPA
The test is described as follows: Enzyme inhibition assay (fluorogenic substrate H-Pro-Phe-Arg-AMC). The conditions noted are these: Kallikrein inhibitory activity; 1 nM activated human kallikrein, 500 μM H-Pro-Phe-Arg-AMC, 1 hour room temperature; read-out: Avg. IC50. In kind it is biochemical. The essentials:
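Activated enzyme (1 nM final) was preincubated 5 min at room temperature with peptides in 10-point 8-fold dilutions. The buffer was 50 mM Tris-HCl pH 7.2, 150 mM NaCl, 10 mM CaCl2, 0.05% Brij-35. After 1 h at room temperature with 500 μM substrate (final), fluorescence was read at 360/460 nm to derive IC50.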
As for `CC(=O)N[C@@H](CS)C(=O)N[C@@H](CC(N)=O)C(=O)N[C@H](Cc1ccc(O)cc1)C(=O)N[C@@H](Cc1c[nH]c2ccccc12)C(=O)N[C@@H](CO)C(=O)N1CCC[C@H]1C(=O)N[C@@H](Cc1c[nH]c2ccccc12)C(=O)N[C@H](C(=O)N[C@@H](C)C(=O)N[C@@H](CS)C(N)=O)[C@@H](C)O` [Compound R2232, Ac-CNyWSPWTAC-NH2] (Ac-CN[dY]WSPWTAC-NH2), the pIC50 was less than 5.71.
As to `CC[C@@H](C)[C@@H]1NC(=O)CCCCCC/C=C/C[C@@H](C(=O)N[C@@H](CCCNC(=N)N)C(=O)N[C@H](C(N)=O)C(C)C)NC1=O` [Compound R2241], the pIC50 is less than 4.12.
On the same count and under the same terms, under `N=C(N)NCCC[C@H](NC(=O)[C@@H]1CSCc2cccc(c2)CSCCC(=O)N2CCC[C@H]2C(=O)N[C@@H](C2CCCCC2)C(=O)N1)C(=O)O` [Compound R2195, [mXylyl(1,4)](des-NH2)C-P-Chg-CR-OH] ([Mpa]P[Chg]CR-OH; linker 1-4 via mXylylene) stands less than 3.76; under `CC(C)(C)[C@H](NC(=O)[C@H](Cc1ccc(Cl)cc1)NC(=O)[C@@H]1CSCc2cccc(c2)CSCCC(=O)N2CCC[C@H]2C(=O)N[C@@H](c2ccccc2)C(=O)N1)C(N)=O` [Compound R2205, [mXylyl(1,4)](des-NH2)C-P-Phg-C-4-Cl-Phe-Tbg-NH2] ([Mpa]P[Phg]C[Phe(4-Cl)][Tle]-NH2; linker 1-4 via mXylylene), less than 4.12; under `CC(=O)N[C@@H](CS)C(=O)N[C@@H](CC(N)=O)C(=O)N[C@@H](Cc1ccc(O)cc1)C(=O)N(C)[C@@H](Cc1c[nH]c2ccccc12)C(=O)N[C@@H](CO)C(=O)N1CCC[C@H]1C(=O)N[C@@H](Cc1c[nH]c2ccccc12)C(=O)N[C@H](C(=O)N[C@@H](C)C(=O)N[C@@H](CS)C(N)=O)[C@@H](C)O` [Compound R2238, Ac-CNY-nMeW-SPWTAC-NH2] (Ac-CNY[NMeW]SPWTAC-NH2), less than 5.34.
Take `CSCC[C@H](N)C(=O)N[C@H]1CSCc2cccc(c2)CSC[C@@H](C(=O)N[C@@H](CCCNC(=N)N)C(=O)N[C@H](C(N)=O)C(C)C)NC(=O)[C@H](c2ccccc2)NC(=O)[C@H](CO)NC(=O)[C@H](CCC(=O)O)NC1=O` [Compound R2012, [mXylyl(2,6)]MCES-Phg-CRV-NH2] (H-MCES[Phg]CRV-NH2; linker 2-6 via mXylylene; N-terminus assumed): the negative logarithm of the IC50 (pIC50) was 8.08.
Still for that read-out and setting: under `CC(C)(C)[C@H](NC(=O)[C@H](CCCNC(=N)N)NC(=O)[C@@H]1CSCc2cccc(c2)CSCCC(=O)N2CCC[C@H]2C(=O)NC(C2CCc3ccccc3C2)C(=O)N1)C(N)=O` (stereo partly drawn) [Compound R2266] ([Mpa]P[X1]CR[Tle]-NH2; linker 1-4 via mXylylene) stands 6.93; under `CC(C)C[C@H](NC(=O)[C@@H](NC(=O)[C@H](CCCNC(=N)N)NC(=O)[C@@H]1CSCc2cccc(c2)CSCCC(=O)N2CCC[C@H]2C(=O)N[C@@H](c2ccccc2)C(=O)N1)C(C)(C)C)C(=O)O` [Compound R2202, [mXylyl(1,4)](des-NH2)C-P-Phg-CR-Tbg-L-OH] ([Mpa]P[Phg]CR[Tle]L-OH; linker 1-4 via mXylylene), 7.23.
Still for that read-out and setting: the same measure for `CC(=O)N[C@@H](CS)C(=O)N[C@@H](CC(N)=O)C(=O)N[C@@H](Cc1ccc(O)cc1)C(=O)N[C@@H](Cc1c[nH]c2ccccc12)C(=O)N[C@@H](CO)C(=O)N1CCC[C@H]1C(=O)N(C)[C@@H](Cc1c[nH]c2ccccc12)C(=O)N[C@H](C(=O)N[C@@H](C)C(=O)N[C@@H](CS)C(N)=O)[C@@H](C)O` [Compound R2236, Ac-CNYWSP-nMeW-TAC-NH2] (Ac-CNYWSP[NMeW]TAC-NH2): less than 5.31.
As to `CC(=O)N[C@H]1CSCc2cccc(c2)CSC[C@@H](C(N)=O)NC(=O)[C@H](C)NC(=O)[C@H]([C@@H](C)O)NC(=O)[C@H](Cc2c[nH]c3ccccc23)NC(=O)[C@@H]2CCCN2C(=O)[C@H](CO)NC(=O)[C@H](Cc2c[nH]c3ccccc23)NC(=O)[C@H](Cc2ccc(O)cc2)NC(=O)[C@H](CC(N)=O)NC1=O` [Compound R2136, [mXylyl(1,10)]Ac-CNYWSPWTAC-NH2] (Ac-CNYWSPWTAC-NH2; linker 1-10 via mXylylene), the negative logarithm of the IC50 (pIC50) is 8.21.
Still for that read-out and setting: the same measure for `CC(C)(C)[C@H](NC(=O)[C@H](CCCNC(=N)N)NC(=O)[C@@H]1CSCc2cccc(c2)CSCCC(=O)N2CCC[C@H]2C(=O)N[C@@H](C2CCCCC2)C(=O)N1)c1ccccn1` [Compound R2196, [mXylyl(1,4)](des-NH2)C-P-Chg-CR-(S)-2,2-dimethyl-1-(pyridin-2-yl)propan-1-amine] ([Mpa]P[Chg]CR-X8; linker 1-4 via mXylylene): 7.45; for `CC(C)(C)[C@H](NC(=O)[C@H](CCCNC(=N)N)NC(=O)[C@@H]1CSCc2cccc(c2)C/C=C/CC(=O)N2CCC[C@H]2C(=O)N[C@@H](C2CCCCC2)C(=O)N1)C(N)=O` [Compound R2261]: 6.78.
As for `C[C@@H]1NC(=O)C(C)(C)NC(=O)CCSCc2cccc(c2)CSC[C@@H](C(=O)N[C@@H](CCCNC(=N)N)C(=O)N[C@H](C(N)=O)C(C)(C)C)NC(=O)[C@H](C2CCCCC2)NC1=O` [Compound R2091, [mXylyl(1,5)](des-NH2)C-Aib-A-Chg-CR-Tbg-NH2] ([Mpa][Aib]A[Chg]CR[Tle]-NH2; linker 1-5 via mXylylene), the pIC50 is 8.49.
The same measure, in the same setting: under `CC[C@H](C)[C@@H]1NC(=O)[C@H](CO)NC(=O)[C@H](CCC(=O)O)NC(=O)[C@@H](NC(=O)[C@@H](N)CCSC)CSCc2cccc(c2)CSC[C@@H](C(=O)N[C@@H](CCCNC(=N)N)C(=O)N[C@@H](CCC(=O)O)C(N)=O)NC1=O` [Compound R2087, [mXylyl(2,6)]MCESICRE-NH2] (H-MCESICRE-NH2; linker 2-6 via mXylylene) stands less than 4.78; under `CC(C)[C@H](NC(=O)C(CCc1ccc(N)nc1)NC(=O)[C@@H]1CSCc2cccc(c2)CSCCC(=O)N2CCC[C@H]2C(=O)N[C@@H](C2CCCCC2)C(=O)N1)C(N)=O` (stereo partly drawn) [Compound R2203, [mXylyl(1,4)](des-NH2)C-P-Chg-C-2-amino-4-(6-aminopyridin-3-yl)butanoic acid-V-NH2] ([Mpa]P[Chg]C[X6]V-NH2; linker 1-4 via mXylylene), less than 5.00; under `CC(C)(C)[C@H](NC(=O)[C@H](CCCNC(=N)N)NC(=O)[C@@H]1CCCn2cc(nn2)CCCCC(=O)N2CCC[C@H]2C(=O)N[C@@H](C2CCCCC2)C(=O)N1)C(N)=O` [Compound R2248], less than 4.00.

Another test addresses T2, Factor XIa (Homo sapiens, UniProt P03951).
T2 construct: Factor XIa (Enzyme Research Laboratories, South Bend, Ind.); purchased Enzyme Research Laboratories
Put plainly: Inhibitor specificity IC50 assay, Factor XIa (Boc-Gln-Gly-Arg-AMC). The conditions noted are these: substrate Boc-Gln-Gly-Arg-AMC. It is filed as biochemical. The procedure:
(§1) Activated human plasma kallikrein (Enzyme Research Laboratories, HPKa 1303) was reacted with H-Pro-Phe-Arg-7-amido-4-methylcoumarin (H-Pro-Pre-Arg-AMC) (a fluorogenic substrate for plasma as well as pancreatic and urinary kallikreins; Bachem I-1295) and candidate inhibitory peptides to determine the IC50 of the inhibitor.
(§2) Ten 8-fold serial dilutions of peptides (10 mM DMSO stocks) were performed in DMSO and then added to TCNB (50 mM Tris-HCl pH 7.2, 150 mM NaCl, 10 mM CaCl2, 0.05% Brij-35) and sonicated. 50 μL of the peptide dilutions were added to microtitre plates (96 well, black non-binding surface, Corning, 3650) and incubated for 5 minutes at room temperature with 4 nM activated human kallikrein (final concentration after addition of fluorogenic substrate: 1 nM). The samples were then incubated for 1 hour at room temperature with 2 mM H-Pro-Phe-Arg-AMC (final concentration 500 μM). Relative Fluorescence Units (RFU) were measured at excitation/emission 360 nm/460 nm by a SpectraMax M3.
(§3) To determine the specificity of peptide inhibitors, an IC50 assay, as described in Example 4, was performed on a variety of serine proteases related to human plasma kallikrein. The enzymes tested include mouse plasma kallikrein (R&D Systems, Minneapolis, Minn.), and the human enzymes Factor VIIa (Enzyme Research Laboratories, South Bend, Ind.), Factor Xa (Enzyme Research Laboratories, South Bend, Ind.), Factor XIa (Enzyme Research Laboratories, South Bend, Ind.), Factor XIIa (Enzyme Research Laboratories, South Bend, Ind.), tissue kallikrein KLK13 (R&D Systems, Minneapolis, Minn.), thrombin (Enzyme Research Laboratories, South Bend, Ind.) and plasmin (Enzyme Research Laboratories, South Bend, Ind.).
(§4) Each enzyme was tested with the following specific fluorgenic substrates (available from Bachem; Torrance, Calif.): mouse plasma kallikrein (Pro-Phe-Arg-AMC), Factor VIIa (Boc-Val-Pro-Arg-AMC), Factor Xa (Boc-Gln-Gly-Arg-AMC), Factor XIa (Boc-Gln-Gly-Arg-AMC), Factor XIIa (Boc-Gln-Gly-Arg-AMC), KLK13 (Boc-Val-Pro-Arg-AMC), thrombin (Boc-Val-Pro-Arg-AMC) and plasmin (Boc-Val-Leu-Lys-AMC). Peptide inhibitors R2006, R2010, R2012, R2019, R2023, R2030, R2036, R2041, R2047, R2104 and R2051 were assayed.
As to `CSCC[C@H](N)C(=O)N[C@H]1CSCc2cccc(c2)CSC[C@@H](C(=O)N[C@@H](CCCNC(=N)N)C(=O)N[C@H](C(N)=O)C(C)C)NC(=O)[C@H](c2ccccc2)NC(=O)[C@H](CO)NC(=O)[C@H](CCC(=O)O)NC1=O` [Compound R2012, [mXylyl(2,6)]MCES-Phg-CRV-NH2] (H-MCES[Phg]CRV-NH2; linker 2-6 via mXylylene; N-terminus assumed), the pIC50 is less than 5.08.

A further test has as its target T3, tissue kallikrein KLK13 (Homo sapiens, UniProt Q9UKR3).
T3 construct: purchased R&D Systems
T3 sequence (Q9UKR3 17-277): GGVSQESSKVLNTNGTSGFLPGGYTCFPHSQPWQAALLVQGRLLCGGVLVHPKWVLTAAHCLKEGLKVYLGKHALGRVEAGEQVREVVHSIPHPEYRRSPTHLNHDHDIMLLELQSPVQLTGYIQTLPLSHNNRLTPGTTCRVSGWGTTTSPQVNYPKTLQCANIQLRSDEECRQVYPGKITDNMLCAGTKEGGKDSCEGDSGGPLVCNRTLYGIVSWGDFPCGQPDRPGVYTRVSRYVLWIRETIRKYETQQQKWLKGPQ
The test is described as follows: Inhibitor specificity IC50 assay, KLK13 (Boc-Val-Pro-Arg-AMC). It is filed as biochemical. The conditions noted are these: substrate Boc-Val-Pro-Arg-AMC. The procedure: as §1, §2, §3, §4
As for `CSCC[C@H](N)C(=O)N[C@H]1CSCc2cccc(c2)CSC[C@@H](C(=O)N[C@@H](CCCNC(=N)N)C(=O)N[C@H](C(N)=O)C(C)C)NC(=O)[C@H](c2ccccc2)NC(=O)[C@H](CO)NC(=O)[C@H](CCC(=O)O)NC1=O` [Compound R2012, [mXylyl(2,6)]MCES-Phg-CRV-NH2] (H-MCES[Phg]CRV-NH2; linker 2-6 via mXylylene; N-terminus assumed), the pIC50 is less than 4.00.
